Measurements reported in patent publication US12509446B2, “FYN and VEGFR2 kinase inhibitors” (ROTTAPHARM BIOTECH S.R.L., priority 2019, dated 2025).
Read-outs that look alike come from different tables or passages of the source.

Key:
[1] = tested on: NF-kB; test: Gene reporter (GR) assay, NF-kB activation after TNFα in JB6 Cl 41-5a (P+) cells; format: cell-based, murine; conditions: TNFα 2 ng/ml, non toxic concentrations, read-out: Gene reporter (GR) inhibition IC50
In short: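 TNFα (2 ng/ml, 4 h) stimulation followed 1 h compound pre-treatment in NF-kB-luciferase-transfected mouse JB6 (P+) epithelial cells. Reporter luminescence and cell viability were read together, each condition in quadruplicate.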

[2] = tested on: COX2; test: Gene expression in rat articular chondrocytes under IL-1β stimulation, COX2; format: cell-based; conditions: Rattus norvegicus, Chondrocyte; 24 h incubation
[3] = tested on: bovine nasal septum cartilage; test: Inhibition of cartilage degradation (GAG release) induced by IL-1α in a bovine in vitro model; format: cell-based
In short: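 Cartilage punches (2 mm) from an 8-month-old male bovine nasal septum were cultured 48 h, then stimulated 48 h with IL-1α […] ± compound in DMEM + 0.1% BSA. Compound doses were set from 48 h rat chondrocyte toxicity. GAG in medium and papain-digested tissue was measured by DMB absorbance at 590 nm; degradation = medium GAG/total GAG × 100.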

[4] = target: Fyn (Homo sapiens (Human), UniProt P06241); test: Z′-LYTE in vitro Fyn kinase activity assay; format: biochemical; conditions: ATP 50 μM; read-out: FYN KINASE INHIBITION IC50
In short: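 Z′-LYTE FRET format with full-length active Fyn in 50 mM Hepes pH 7.5, 10 mM MgCl2, 1 mM EGTA, 0.01% Brij-35, 1% DMSO final; 60 minutes at 25° C. Percent phosphorylation from 0% and 100% phosphorylation controls; IC50 by non-linear curve fitting of percent inhibition.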

[5] = tested on: CFA induced hyperalgesia; test: Complete Freund Adjuvant (CFA)-induced inflammatory pain in rats; format: in vivo, rat; conditions: intra-dermal
[6] = tested on: ADAMTS-5; test: Gene expression in rat articular chondrocytes under IL-1β stimulation, ADAMTS-5; format: cell-based; conditions: Rattus norvegicus, Chondrocyte; 6 h incubation
In short: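 Rat chondrocytes, day 10 post-plating; switched to DMEM GlutaMAX I 0.4%; compound + cytokine 2 ng/ml; 6 h (IL-1β, ADAMTS-5) or 24 h (MMP3, MMP13); total RNA → cDNA → TaqMan qPCR, 18S-normalised.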

[7] = Pharmacokinetics after administration into the knee joint of rats; format: in vivo; conditions: suspension into the knee joint
[8] = target: AurA (Homo sapiens (Human), UniProt O14965); test: Kinase selectivity (Eurofins Cerep), AurA; format: biochemical; conditions: maximal concentration tested 10 μM
Experimental: (§1) The assays were performed in Eurofins Cerep (France). The concentration range of the compound under investigation was from 10^−9 M up to 10^−5 M final concentration.

[9] = target: CDK2 (Homo sapiens (Human), UniProt P24941); test: Kinase selectivity (Eurofins Cerep), CDK2; format: biochemical; conditions: maximal concentration tested 10 μM
Experimental: as §1

Chain of AurA (O14965 whole entry): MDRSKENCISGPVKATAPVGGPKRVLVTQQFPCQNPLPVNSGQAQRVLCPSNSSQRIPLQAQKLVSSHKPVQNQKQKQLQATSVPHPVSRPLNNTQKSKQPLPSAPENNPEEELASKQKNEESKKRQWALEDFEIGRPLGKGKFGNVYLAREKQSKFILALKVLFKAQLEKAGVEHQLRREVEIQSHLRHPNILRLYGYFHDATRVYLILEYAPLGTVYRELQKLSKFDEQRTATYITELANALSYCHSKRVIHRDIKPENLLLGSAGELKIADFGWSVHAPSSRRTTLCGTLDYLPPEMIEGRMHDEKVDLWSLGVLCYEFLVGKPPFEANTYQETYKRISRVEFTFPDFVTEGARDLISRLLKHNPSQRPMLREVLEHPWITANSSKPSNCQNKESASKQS
Chain of Fyn (P06241 whole entry): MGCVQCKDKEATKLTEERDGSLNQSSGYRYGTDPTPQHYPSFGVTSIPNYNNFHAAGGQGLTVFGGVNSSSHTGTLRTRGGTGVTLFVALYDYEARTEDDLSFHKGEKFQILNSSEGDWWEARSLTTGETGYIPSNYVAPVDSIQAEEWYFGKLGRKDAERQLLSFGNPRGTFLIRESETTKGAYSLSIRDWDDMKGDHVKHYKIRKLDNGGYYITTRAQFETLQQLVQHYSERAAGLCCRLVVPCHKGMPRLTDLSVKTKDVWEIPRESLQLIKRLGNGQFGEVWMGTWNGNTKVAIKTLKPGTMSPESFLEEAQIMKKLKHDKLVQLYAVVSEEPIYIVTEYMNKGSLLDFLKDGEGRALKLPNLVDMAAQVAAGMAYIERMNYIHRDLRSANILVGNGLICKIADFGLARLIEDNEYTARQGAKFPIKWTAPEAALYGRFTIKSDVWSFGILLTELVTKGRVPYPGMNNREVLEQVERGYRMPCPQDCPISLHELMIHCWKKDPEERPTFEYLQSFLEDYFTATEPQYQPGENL

## Cc1ccc(NC(=O)c2cccc(C(F)(F)F)c2)cc1CCc1cc(Nc2cnccn2)[nH]n1 [Compound 3, N-(4-methyl-3-(2-(5-(pyrazin-2-ylamino)-1H-pyrazol-3-yl)ethyl)phenyl)-3-(trifluoromethyl)benzamide]
[1]; Mus musculus, JB6 Cl 41-5a
  IC50: < 250 nM
[1]
  IC50: 236 nM
[2]
  IC50: 187 nM
[3]; Bos taurus, 1 μM, read-out: Bovine cartilage degradation induced by IL-1α, % inhibitory effect at max concentration
  inhibition at 1 µM: 100%
[3]; at max concentration
  Inhibitory effect on the GAG release: 95-100%
[4]
  IC50: 9 nM
[5]; 3 μM (140 ng/paw), no CFA challenge
  Effect on normal nociception in naïve animals: did not modify the normal nociception
[5]; maximal concentration of 3 μM (140 ng/paw)
  Effect on pain behavior in CFA inflamed animals (mechanical pain threshold): completely reverted the pain behavior
[6]
  IC50: 34 nM
[7]
  Permanence in the synovial fluid and articular tissues (cartilage and synovial fat): at least 14 days
[8]
  IC50: > 10000 nM
[9]
  IC50: > 10000 nM
